Laboratory results from ChEMBL document CHEMBL6096638, “Design, synthesis and biological evaluation of novel TMPRSS2-PROTACs with florosubstituted 4-guanidino-N-phenylbenzamide derivative ligands” (Bioorg Med Chem, 2024).
Active and inactive are the calls of the source. The calls are words filed in the database; no cut-off is given here.

Tests used:
HT-29 [1] = test: Antiproliferative activity against human HT-29 cells assessed as inhibition of cell growth incubated for 48 hrs by CCK-8 assay; type: functional, cell-based; settings: HT-29, 48 h
HT-29 [2] = test: Induction of apoptosis in human HT-29 cells assessed as late apoptotic cells at 0.4 uM incubated for 48 hrs by Annexin V-FITC/PI staining based flow cytometric analysis (reference value: 5.87 %); type: functional
[3] = biological target: von Hippel-Lindau disease tumor suppressor/Transmembrane protease serine 2 (Homo sapiens) (UniProt O15393+P40337); test: PROTAC activity at VHL/TMPRSS2 in human HT-29 cells assessed as induction of TMPRSS2 degradation at 2.5 uM incubated for 24 hrs by Western blotting analysis; type: cell-based
VCaP = test: Antiproliferative activity against human VCaP cells assessed as inhibition of cell growth incubated for 48 hrs by CCK-8 assay; type: functional, cell-based
DU-145 [4] = test: Antiproliferative activity against human DU-145 cells assessed as inhibition of cell growth at 20 uM incubated for 48 hrs by CCK-8 assay relative to control; type: functional
A549 = test: Antiproliferative activity against human A549 cells assessed as inhibition of cell growth incubated for 48 hrs by CCK-8 assay; type: functional, cell-based; settings: A549, 48 h
HT-29 [5] = test: Induction of apoptosis in human HT-29 cells assessed as early apoptotic cells at 0.2 uM incubated for 48 hrs by Annexin V-FITC/PI staining based flow cytometric analysis (reference value: 1.22 %); type: functional
MCF7 = test: Antiproliferative activity against human MCF7 cells assessed as inhibition of cell growth incubated for 48 hrs by CCK-8 assay; type: functional, cell-based; settings: MCF7, 48 h
HT-29 [6] = test: Induction of apoptosis in human HT-29 cells assessed as necrotic cells at 0.4 uM incubated for 48 hrs by Annexin V-FITC/PI staining based flow cytometric analysis (reference value: 2.48 %); type: functional
HT-29 [7] = test: Induction of apoptosis in human HT-29 cells assessed as necrotic cells at 0.8 uM incubated for 48 hrs by Annexin V-FITC/PI staining based flow cytometric analysis (reference value: 2.48 %); type: functional
HT-29 [8] = test: Induction of apoptosis in human HT-29 cells assessed as viable cells at 0.4 uM incubated for 48 hrs by Annexin V-FITC/PI staining based flow cytometric analysis (reference value: 90.4 %); type: functional; settings: read-out: Activity
HT-29 [9] = test: Induction of apoptosis in human HT-29 cells assessed as necrotic cells at 0.2 uM incubated for 48 hrs by Annexin V-FITC/PI staining based flow cytometric analysis (reference value: 2.48 %); type: functional
SH-SY5Y = test: Antiproliferative activity against human SH-SY5Y cells assessed as inhibition of cell growth incubated for 48 hrs by CCK-8 assay; type: functional, cell-based
PC-3 = test: Antiproliferative activity against human PC-3 cells assessed as inhibition of cell growth incubated for 48 hrs by CCK-8 assay; type: functional, cell-based; settings: PC-3, 48 h
CWR22R = test: Antiproliferative activity against human 22Rv1 cells assessed as inhibition of cell growth incubated for 48 hrs by CCK-8 assay; type: functional, cell-based; settings: 22Rv1, 48 h
HT-29 [10] = test: Antiproliferative activity against human HT-29 cells assessed as inhibition of cell growth at 20 uM incubated for 48 hrs by CCK-8 assay relative to control; type: functional
HT-29 [11] = test: Inhibition of colony formation in human HT-29 cells incubated for 24 hrs by crystal violet staining based analysis; type: functional, cell-based; settings: dose 0.1-0.4 µM
SK-N-AS = test: Antiproliferative activity against human SK-N-AS cells assessed as inhibition of cell growth incubated for 48 hrs by CCK-8 assay; type: functional, cell-based
HT-29 [12] = test: Induction of apoptosis in human HT-29 cells assessed as late apoptotic cells at 0.8 uM incubated for 48 hrs by Annexin V-FITC/PI staining based flow cytometric analysis (reference value: 5.87 %); type: functional
HT-29 [13] = test: Induction of apoptosis in human HT-29 cells assessed as viable cells at 0.8 uM incubated for 48 hrs by Annexin V-FITC/PI staining based flow cytometric analysis (reference value: 90.4 %); type: functional; settings: read-out: Activity
HT-29 [14] = test: Induction of apoptosis in human HT-29 cells assessed as late apoptotic cells at 0.2 uM incubated for 48 hrs by Annexin V-FITC/PI staining based flow cytometric analysis (reference value: 5.87 %); type: functional
A-375 = test: Antiproliferative activity against human A-375 cells assessed as inhibition of cell growth incubated for 48 hrs by CCK-8 assay; type: functional, cell-based; settings: A-375, 48 h
HT-29 [15] = test: Inhibition of cell migration in human HT-29 cells at 0.2 to 0.8 uM incubated for 48 hrs by wound healing assay; type: functional, cell-based; settings: dose 0.2-0.8 µM
Calu-3 [16] = test: Antiproliferative activity against human Calu-3 cells assessed as inhibition of cell growth incubated for 48 hrs by CCK-8 assay; type: functional, cell-based; settings: Calu-3, 48 h
MDA-MB-231 = test: Antiproliferative activity against human MDA-MB-231 cells assessed as inhibition of cell growth incubated for 48 hrs by CCK-8 assay; type: functional, cell-based; settings: MDA-MB-231, 48 h
NCI-H1299 = test: Antiproliferative activity against human NCI-H1299 cells assessed as inhibition of cell growth incubated for 48 hrs by CCK-8 assay; type: functional, cell-based; settings: NCI-H1299, 48 h
Calu-3 [17] = test: Antiproliferative activity against human Calu-3 cells assessed as inhibition of cell growth at 20 uM incubated for 48 hrs by CCK-8 assay relative to control; type: functional
K562 = test: Antiproliferative activity against human K562 cells assessed as inhibition of cell growth incubated for 48 hrs by CCK-8 assay; type: functional, cell-based; settings: K562, 48 h
HT-29 [18] = test: Induction of cell cycle arrest in human HT-29 cells assessed as accumulation of cells at G2 phase at 0.8 uM incubated for 36 hrs by PI-staining based flow cytometry; type: functional
MRC5 = test: Antiproliferative activity against human MRC5 cells assessed as inhibition of cell growth incubated for 48 hrs by CCK-8 assay; type: functional, cell-based; settings: MRC5, 48 h
786-0 = test: Antiproliferative activity against human 786-0 cells assessed as inhibition of cell growth incubated for 48 hrs by CCK-8 assay; type: functional, cell-based; settings: 786-0, 48 h
HT-29 [19] = test: Induction of apoptosis in human HT-29 cells assessed as early apoptotic cells at 0.4 uM incubated for 48 hrs by Annexin V-FITC/PI staining based flow cytometric analysis (reference value: 1.22 %); type: functional
HepG2 = test: Antiproliferative activity against human HepG2 cells assessed as inhibition of cell growth incubated for 48 hrs by CCK-8 assay; type: functional, cell-based; settings: HepG2, 48 h
HT-29 [20] = test: Induction of apoptosis in human HT-29 cells assessed as early apoptotic cells at 0.8 uM incubated for 48 hrs by Annexin V-FITC/PI staining based flow cytometric analysis (reference value: 1.22 %); type: functional
HT-29 [21] = test: Induction of apoptosis in human HT-29 cells assessed as viable cells at 0.2 uM incubated for 48 hrs by Annexin V-FITC/PI staining based flow cytometric analysis (reference value: 90.4 %); type: functional; settings: read-out: Activity
DU-145 [22] = test: Antiproliferative activity against human DU-145 cells assessed as inhibition of cell growth incubated for 48 hrs by CCK-8 assay; type: functional, cell-based; settings: DU-145, 48 h
AGS = test: Antiproliferative activity against human AGS cells assessed as inhibition of cell growth incubated for 48 hrs by CCK-8 assay; type: functional, cell-based

von Hippel-Lindau disease tumor suppressor/Transmembrane protease serine 2 (Homo sapiens), sequence (O15393 whole entry, looked up): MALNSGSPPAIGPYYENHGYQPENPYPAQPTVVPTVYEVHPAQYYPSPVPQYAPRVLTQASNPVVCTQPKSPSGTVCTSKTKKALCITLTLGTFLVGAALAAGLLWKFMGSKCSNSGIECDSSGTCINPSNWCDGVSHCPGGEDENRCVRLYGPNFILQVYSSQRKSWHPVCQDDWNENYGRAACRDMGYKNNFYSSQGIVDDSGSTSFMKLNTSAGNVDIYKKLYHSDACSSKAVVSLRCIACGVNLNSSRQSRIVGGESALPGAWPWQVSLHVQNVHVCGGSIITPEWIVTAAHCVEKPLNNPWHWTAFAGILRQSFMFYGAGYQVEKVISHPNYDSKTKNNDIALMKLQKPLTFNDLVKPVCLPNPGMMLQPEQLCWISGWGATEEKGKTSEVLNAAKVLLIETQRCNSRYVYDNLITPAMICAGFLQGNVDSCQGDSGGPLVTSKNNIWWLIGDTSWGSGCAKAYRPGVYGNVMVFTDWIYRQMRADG
von Hippel-Lindau disease tumor suppressor/Transmembrane protease serine 2 (Homo sapiens), sequence (P40337 whole entry, looked up): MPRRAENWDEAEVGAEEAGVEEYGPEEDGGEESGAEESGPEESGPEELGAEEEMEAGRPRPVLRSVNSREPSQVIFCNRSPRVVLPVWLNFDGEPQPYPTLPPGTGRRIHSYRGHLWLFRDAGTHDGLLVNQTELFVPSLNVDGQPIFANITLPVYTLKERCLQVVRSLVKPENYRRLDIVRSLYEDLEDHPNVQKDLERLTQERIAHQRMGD

Structure (SMILES): Cc1ncsc1-c1ccc([C@H](C)NC(=O)[C@@H]2C[C@@H](O)CN2C(=O)[C@@H](NC(=O)CN2CCC(CN3CCN(c4ccc(NC(=O)c5cc(F)c(NC(=N)N)cc5F)cc4)CC3)CC2)C(C)(C)C)cc1.Cl
- IC50 (HT-29 [1]): 0.39 µM
- Activity (HT-29 [2]): 11.6%
- Activity [3]: Active
- IC50 (VCaP): 7.57 µM
- inhibition at 20 µM (DU-145 [4]): 74.6%
- IC50 (A549): 12.3 µM
- Activity (HT-29 [5]): 1.58%
- IC50 (MCF7): 13.3 µM
- Activity (HT-29 [6]): 4.21%
- Activity (HT-29 [7]): 3.01%
- viability at 0.4 µM (HT-29 [8]): 80.4%
- Activity (HT-29 [9]): 6.59%
- IC50 (SH-SY5Y): 18 µM
- IC50 (PC-3): 24.5 µM
- IC50 (CWR22R): 20 µM
- inhibition at 20 µM (HT-29 [10]): 94.6%
- inhibition (HT-29 [11]): Dose-dependent-effect
- IC50 (SK-N-AS): 6.91 µM
- Activity (HT-29 [12]): 23.2%
- viability at 0.8 µM (HT-29 [13]): 58.5%
- Activity (HT-29 [14]): 13%
- IC50 (A-375): 9.63 µM
- Activity (HT-29 [15]): Active
- IC50 (Calu-3 [16]): 1.62 µM
- IC50 (MDA-MB-231): 10.7 µM
- IC50 (NCI-H1299): > 40 µM
- inhibition at 20 µM (Calu-3 [17]): 96.1%
- IC50 (K562): 9.01 µM
- Activity (HT-29 [18]): Active
- IC50 (MRC5): > 40 µM
- IC50 (786-0): 34.8 µM
- Activity (HT-29 [19]): 3.74%
- IC50 (HepG2): 8.73 µM
- Activity (HT-29 [20]): 15.3%
- viability at 0.2 µM (HT-29 [21]): 78.8%
- IC50 (DU-145 [22]): 5.26 µM
- IC50 (AGS): 14.9 µM

Structure (SMILES): N=C(N)Nc1ccc(C(=O)Oc2ccc3cc(C(=N)N)ccc3c2)cc1 [NAFAMOSTAT]
- IC50 (HT-29 [1]): > 40 µM
- IC50 (VCaP): > 40 µM
- IC50 (A549): > 40 µM
- IC50 (MCF7): > 40 µM
- IC50 (SH-SY5Y): 37.1 µM
- IC50 (PC-3): 39.9 µM
- IC50 (CWR22R): > 40 µM
- IC50 (SK-N-AS): > 40 µM
- IC50 (A-375): > 40 µM
- IC50 (Calu-3 [16]): 37.9 µM
- IC50 (MDA-MB-231): > 40 µM
- IC50 (NCI-H1299): 19.2 µM
- IC50 (K562): > 40 µM
- IC50 (MRC5): > 40 µM
- IC50 (786-0): > 40 µM
- IC50 (HepG2): > 40 µM
- IC50 (DU-145 [22]): > 40 µM
- IC50 (AGS): > 40 µM
